Test results reported in US12662465B2, “EGFR inhibitors” (Blueprint Medicines Corporation, priority 2021, dated 2026).
Blank lines part the entries; values can stand above or below the compound they belong to.

Experiments:
[1] = biological target: T1, EGFR enzyme (Homo sapiens, UniProt P00533); test: Biochemical EGFR inhibition assays (Biological Example 1), enzyme form not specified; details: Biological Example/Assay 1; read-out: inhibitory activity
T1 construct: From knowledge only, the SignalChem E10-1xx 'G' products are GST-tagged cytoplasmic-domain constructs

[2] = test system: EGFR M+ NSCLC patients; details: first line (1L), NSCLC harboring del19 and L858R mutations; cited from earlier work
[3] = biological target: T2, EGFR L858R (Homo sapiens, UniProt P00533, L858R); test: Biochemical EGFR inhibition assay (Caliper mobility shift), EGFR L858R; details: 1.0 mM ATP or ATP Km; room temperature (25° C.); read-out: Enz EGFR_L858R IC50
T2 construct: purchased SignalChem E10-122BG

[4] = biological target: T3, EGFR (d746-750) (Homo sapiens, UniProt P00533, DEL746-750); test: Biochemical EGFR inhibition assay (Caliper mobility shift), EGFR (d746-750); details: 1.0 mM ATP or ATP Km; room temperature (25° C.); read-out: Enz EGFR_Exon19-del746-750 IC50
T3 construct: purchased SignalChem E10-122JG

[5] = biological target: intracellular phosphorylation of EGFR (Tyr1068) in PC-9 cells (Ex19Del) (Homo sapiens, UniProt P00533, DEL746-750); test: PC-9 pEGFR AlphaLISA assay; type: cell-based; details: 4 hours compound incubation, read-out: Ext pEGFR_PC-9 Ex19Del IC50
Chain of intracellular phosphorylation of EGFR (Tyr1068) in PC-9 cells (Ex19Del) (P00533 with tags, fused parts or gaps DEL746-750): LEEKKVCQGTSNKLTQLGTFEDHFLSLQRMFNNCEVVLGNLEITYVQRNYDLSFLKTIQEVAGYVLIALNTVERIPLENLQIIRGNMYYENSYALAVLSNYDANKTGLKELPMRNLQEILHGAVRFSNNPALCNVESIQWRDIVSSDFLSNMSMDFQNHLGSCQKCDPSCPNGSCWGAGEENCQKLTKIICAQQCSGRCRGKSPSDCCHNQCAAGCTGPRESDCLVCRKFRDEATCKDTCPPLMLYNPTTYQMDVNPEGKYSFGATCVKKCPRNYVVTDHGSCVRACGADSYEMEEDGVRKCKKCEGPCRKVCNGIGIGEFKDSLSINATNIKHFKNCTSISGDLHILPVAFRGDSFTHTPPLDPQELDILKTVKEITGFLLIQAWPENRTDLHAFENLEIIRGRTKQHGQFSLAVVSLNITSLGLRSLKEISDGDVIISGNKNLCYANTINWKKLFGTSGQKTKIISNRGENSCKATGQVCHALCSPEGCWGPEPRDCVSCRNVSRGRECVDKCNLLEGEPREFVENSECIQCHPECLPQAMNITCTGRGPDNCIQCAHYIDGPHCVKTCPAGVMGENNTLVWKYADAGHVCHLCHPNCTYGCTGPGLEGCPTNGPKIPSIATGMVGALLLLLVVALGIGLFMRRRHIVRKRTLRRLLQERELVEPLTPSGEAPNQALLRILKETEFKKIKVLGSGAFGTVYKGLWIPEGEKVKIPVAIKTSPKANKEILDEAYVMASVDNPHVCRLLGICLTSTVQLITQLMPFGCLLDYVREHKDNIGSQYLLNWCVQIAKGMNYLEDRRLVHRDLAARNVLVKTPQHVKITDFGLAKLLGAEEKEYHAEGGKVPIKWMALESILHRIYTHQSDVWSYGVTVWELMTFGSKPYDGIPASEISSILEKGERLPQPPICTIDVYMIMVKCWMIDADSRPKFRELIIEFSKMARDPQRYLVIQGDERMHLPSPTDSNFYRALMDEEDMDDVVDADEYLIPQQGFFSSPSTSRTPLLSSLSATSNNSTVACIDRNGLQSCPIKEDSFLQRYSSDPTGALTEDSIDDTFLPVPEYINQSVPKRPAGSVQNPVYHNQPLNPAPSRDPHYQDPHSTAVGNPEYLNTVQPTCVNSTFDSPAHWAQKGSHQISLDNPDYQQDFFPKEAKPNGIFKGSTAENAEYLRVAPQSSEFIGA

T3 sequence (P00533 with tags, fused parts or gaps DEL746-750 limits assumed): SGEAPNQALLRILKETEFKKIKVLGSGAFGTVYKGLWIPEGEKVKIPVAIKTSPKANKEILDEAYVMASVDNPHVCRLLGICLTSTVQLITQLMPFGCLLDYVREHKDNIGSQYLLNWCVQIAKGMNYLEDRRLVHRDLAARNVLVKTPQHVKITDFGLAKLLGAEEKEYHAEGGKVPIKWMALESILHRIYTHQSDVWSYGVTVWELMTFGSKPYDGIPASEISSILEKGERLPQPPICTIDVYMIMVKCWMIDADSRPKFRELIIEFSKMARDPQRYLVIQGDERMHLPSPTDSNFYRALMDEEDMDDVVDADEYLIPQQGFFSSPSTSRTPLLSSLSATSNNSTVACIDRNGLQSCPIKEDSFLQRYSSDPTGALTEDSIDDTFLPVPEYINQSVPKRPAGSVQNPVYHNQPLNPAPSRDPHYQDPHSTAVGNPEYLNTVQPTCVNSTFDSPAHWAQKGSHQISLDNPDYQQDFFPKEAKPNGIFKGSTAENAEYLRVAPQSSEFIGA
T2 sequence (P00533 25-1210 L858R): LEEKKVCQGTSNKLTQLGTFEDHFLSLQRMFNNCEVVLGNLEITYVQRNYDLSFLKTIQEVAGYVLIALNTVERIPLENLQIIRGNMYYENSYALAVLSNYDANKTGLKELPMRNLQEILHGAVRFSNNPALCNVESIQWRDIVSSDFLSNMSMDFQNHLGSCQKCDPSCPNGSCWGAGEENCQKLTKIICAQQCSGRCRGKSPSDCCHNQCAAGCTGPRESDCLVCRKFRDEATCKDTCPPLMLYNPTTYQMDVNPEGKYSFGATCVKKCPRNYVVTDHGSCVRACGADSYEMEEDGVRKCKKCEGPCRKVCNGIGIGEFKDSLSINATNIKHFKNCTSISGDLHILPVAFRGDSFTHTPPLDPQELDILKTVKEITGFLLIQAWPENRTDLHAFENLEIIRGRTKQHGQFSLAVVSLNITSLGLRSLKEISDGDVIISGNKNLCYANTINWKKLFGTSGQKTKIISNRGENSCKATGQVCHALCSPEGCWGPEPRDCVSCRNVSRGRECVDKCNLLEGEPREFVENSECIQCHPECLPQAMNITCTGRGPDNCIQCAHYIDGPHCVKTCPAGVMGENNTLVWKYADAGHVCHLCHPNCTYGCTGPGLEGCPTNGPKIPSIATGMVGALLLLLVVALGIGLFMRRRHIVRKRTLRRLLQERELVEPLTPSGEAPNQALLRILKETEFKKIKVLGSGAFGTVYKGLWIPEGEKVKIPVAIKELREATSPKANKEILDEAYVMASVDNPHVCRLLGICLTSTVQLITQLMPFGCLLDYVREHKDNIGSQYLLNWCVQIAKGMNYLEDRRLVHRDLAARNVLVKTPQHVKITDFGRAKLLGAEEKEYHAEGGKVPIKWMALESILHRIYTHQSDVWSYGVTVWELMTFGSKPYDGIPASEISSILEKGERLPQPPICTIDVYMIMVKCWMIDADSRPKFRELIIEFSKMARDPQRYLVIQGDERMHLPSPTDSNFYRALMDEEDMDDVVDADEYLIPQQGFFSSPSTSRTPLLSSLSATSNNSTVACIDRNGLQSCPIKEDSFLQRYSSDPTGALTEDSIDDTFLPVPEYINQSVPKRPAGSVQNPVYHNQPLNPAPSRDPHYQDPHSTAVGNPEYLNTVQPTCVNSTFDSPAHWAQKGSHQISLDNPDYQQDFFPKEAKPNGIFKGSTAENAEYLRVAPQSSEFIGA
T1 sequence (P00533 whole entry L858R, form open): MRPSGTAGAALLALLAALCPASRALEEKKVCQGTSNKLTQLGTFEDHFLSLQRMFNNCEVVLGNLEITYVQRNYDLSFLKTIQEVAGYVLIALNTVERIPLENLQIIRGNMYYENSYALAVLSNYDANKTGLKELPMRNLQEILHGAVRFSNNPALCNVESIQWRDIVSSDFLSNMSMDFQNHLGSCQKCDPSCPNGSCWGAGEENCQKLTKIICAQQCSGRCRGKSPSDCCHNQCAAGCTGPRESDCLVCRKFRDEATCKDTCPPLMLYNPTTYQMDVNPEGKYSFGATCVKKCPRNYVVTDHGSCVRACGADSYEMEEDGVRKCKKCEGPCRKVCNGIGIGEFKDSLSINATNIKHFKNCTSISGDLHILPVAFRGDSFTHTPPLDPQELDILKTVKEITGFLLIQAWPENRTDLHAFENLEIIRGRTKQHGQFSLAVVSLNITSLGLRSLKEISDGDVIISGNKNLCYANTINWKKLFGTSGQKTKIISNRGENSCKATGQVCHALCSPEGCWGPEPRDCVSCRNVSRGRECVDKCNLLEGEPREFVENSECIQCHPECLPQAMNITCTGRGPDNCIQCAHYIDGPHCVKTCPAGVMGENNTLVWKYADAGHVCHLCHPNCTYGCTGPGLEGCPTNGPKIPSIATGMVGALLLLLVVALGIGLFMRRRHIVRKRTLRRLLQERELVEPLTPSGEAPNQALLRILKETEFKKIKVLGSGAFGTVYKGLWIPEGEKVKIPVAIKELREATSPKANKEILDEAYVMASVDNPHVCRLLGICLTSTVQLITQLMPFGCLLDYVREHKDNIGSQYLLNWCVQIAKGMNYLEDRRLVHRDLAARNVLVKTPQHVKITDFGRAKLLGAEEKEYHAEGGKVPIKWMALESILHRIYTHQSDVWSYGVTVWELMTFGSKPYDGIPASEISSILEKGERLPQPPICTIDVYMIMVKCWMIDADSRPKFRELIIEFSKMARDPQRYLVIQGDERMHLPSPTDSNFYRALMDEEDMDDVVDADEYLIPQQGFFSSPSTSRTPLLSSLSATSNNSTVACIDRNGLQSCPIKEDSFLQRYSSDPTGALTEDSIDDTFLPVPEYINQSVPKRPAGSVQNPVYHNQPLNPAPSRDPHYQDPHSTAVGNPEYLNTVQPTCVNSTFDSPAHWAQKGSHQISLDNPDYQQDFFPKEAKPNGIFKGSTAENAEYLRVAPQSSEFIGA

IC50 [1]: > 10000 nM
Compound: [2H]c1c(-c2cc(O[C@H](C)CN(C)C)c3c(Nc4ccc5ncccc5c4OC([2H])([2H])[2H])ncnc3c2)cnn1C

Compound: C=CC(=O)Nc1cc(Nc2nccc(-c3cn(C)c4ccccc34)n2)c(OC)cc1N(C)CCN(C)C [osimertinib]
progression-free survival (PFS) [2]: 18.9 mo

Compound: C[C@@H](CN(C)C)Oc1cc(N2CC3CC(C2)O3)cc2ncnc(Nc3ccc4ncccc4c3)c12 (single isomer, unassigned) [Example 68, 7-(6-oxa-3-azabicyclo[3.1.1]heptan-3-yl)-5-(((S)-1-(dimethylamino)propan-2-yl)oxy)-N-(quinolin-6-yl)quinazolin-4-amine or 7-(6-oxa-3-azabicyclo[3.1.1]heptan-3-yl)-5-(((R)-1-(dimethylamino)propan-2-yl)oxy)-N-(quinolin-6-yl)quinazolin-4-amine]
IC50 [3]: 10.1 to 50 nM | IC50 [4]: < 10 nM | IC50 [5]: ≤ 10 nM
